# Experimental data: the NIST ThermoML archive (doi:10.1016/j.jct.2014.01.006)
# Numbers after ± are expanded uncertainties.
# Legend:
# [1] = for molar entropy: Vacuum adiabatic calorimetry; for mass density: Vibrating tube method; for vapor or sublimation pressure: Ebulliometric method (Recirculating still)
# [2] = molar heat capacity at saturation pressure; conditions: Crystal, Vacuum adiabatic calorimetry
structure (smiles),measurement,setting,value
c1ccc(-c2cccc3ccccc23)cc1 [1-phenylnaphthalene],molar entropy,"[1]; 5 K, Crystal",0.1746 ± 0.017 J/K/mol
same,molar entropy,"[1]; 10 K, Crystal",1.372 ± 0.025 J/K/mol
same,molar entropy,"[1]; 20 K, Crystal",7.849 ± 0.083 J/K/mol
same,molar entropy,"[1]; 30 K, Crystal",17.67 ± 0.16 J/K/mol
same,molar entropy,"[1]; 40 K, Crystal",28.64 ± 0.12 J/K/mol
same,molar entropy,"[1]; 50 K, Crystal",39.72 ± 0.14 J/K/mol
same,molar entropy,"[1]; 60 K, Crystal",50.49 ± 0.17 J/K/mol
same,molar entropy,"[1]; 70 K, Crystal",60.84 ± 0.19 J/K/mol
same,molar entropy,"[1]; 80 K, Crystal",70.76 ± 0.22 J/K/mol
same,molar entropy,"[1]; 90 K, Crystal",80.33 ± 0.32 J/K/mol
same,molar entropy,"[1]; 100 K, Crystal",89.56 ± 0.34 J/K/mol
same,molar entropy,"[1]; 120 K, Crystal",107.24 ± 0.37 J/K/mol
same,molar entropy,"[1]; 140 K, Crystal",124.19 ± 0.39 J/K/mol
same,molar entropy,"[1]; 160 K, Crystal",140.69 ± 0.42 J/K/mol
same,molar entropy,"[1]; 180 K, Crystal",156.93 ± 0.45 J/K/mol
same,molar entropy,"[1]; 200 K, Crystal",173.03 ± 0.47 J/K/mol
same,molar entropy,"[1]; 220 K, Crystal",189.11 ± 0.5 J/K/mol
same,molar entropy,"[1]; 240 K, Crystal",205.23 ± 0.53 J/K/mol
same,molar entropy,"[1]; 260 K, Crystal",221.4 ± 0.56 J/K/mol
same,molar entropy,"[1]; 280 K, Crystal",237.64 ± 0.58 J/K/mol
same,molar entropy,"[1]; 297.47 K, Crystal",251.92 ± 0.61 J/K/mol
same,molar entropy,"[1]; 297.47 K, Liquid",304.2 ± 0.71 J/K/mol
same,molar entropy,"[1]; 298.15 K, Liquid",304.91 ± 0.71 J/K/mol
same,molar entropy,"[1]; 300 K, Liquid",306.83 ± 0.71 J/K/mol
same,molar entropy,"[1]; 320 K, Liquid",327.32 ± 0.75 J/K/mol
same,mass density,"[1]; 323.14 K, Liquid",1082.7 ± 1.1 kg/m3
same,molar entropy,"[1]; 340 K, Liquid",347.28 ± 0.78 J/K/mol
same,mass density,"[1]; 348.13 K, Liquid",1064.6 ± 1.1 kg/m3
same,molar entropy,"[1]; 360 K, Liquid",366.78 ± 0.81 J/K/mol
same,mass density,"[1]; 373.12 K, Liquid",1045.5 ± 1 kg/m3
same,vapor or sublimation pressure,"[1]; 375 K, Liquid",0.0218 ± 0.0077 kPa
same,molar entropy,"[1]; 380 K, Liquid",385.86 ± 0.85 J/K/mol
same,vapor or sublimation pressure,"[1]; 385 K, Liquid",0.0404 ± 0.0077 kPa
same,vapor or sublimation pressure,"[1]; 395 K, Liquid",0.0732 ± 0.0078 kPa
same,molar entropy,"[1]; 400 K, Liquid",404.57 ± 0.88 J/K/mol
same,vapor or sublimation pressure,"[1]; 405 K, Liquid",0.1265 ± 0.0078 kPa
same,vapor or sublimation pressure,"[1]; 415 K, Liquid",0.2126 ± 0.0078 kPa
same,molar entropy,"[1]; 420 K, Liquid",422.96 ± 0.91 J/K/mol
same,mass density,"[1]; 423.11 K, Liquid",1006.3 ± 1 kg/m3
same,vapor or sublimation pressure,"[1]; 425.01 K, Liquid",0.3464 ± 0.0078 kPa
same,vapor or sublimation pressure,"[1]; 434.99 K, Liquid",0.549 ± 0.0078 kPa
same,molar entropy,"[1]; 440 K, Liquid",441.01 ± 0.95 J/K/mol
same,vapor or sublimation pressure,"[1]; 445 K, Liquid",0.849 ± 0.0078 kPa
same,mass density,"[1]; 448.11 K, Liquid",986.7 ± 1 kg/m3
same,vapor or sublimation pressure,"[1]; 455 K, Liquid",1.283 ± 0.0079 kPa
same,molar entropy,"[1]; 460 K, Liquid",458.69 ± 0.98 J/K/mol
same,vapor or sublimation pressure,"[1]; 465 K, Liquid",1.896 ± 0.008 kPa
same,vapor or sublimation pressure,"[1]; 466.36 K, Liquid",2 ± 0.0081 kPa
same,mass density,"[1]; 473.11 K, Liquid",967 ± 1 kg/m3
same,vapor or sublimation pressure,"[1]; 475 K, Liquid",2.747 ± 0.0082 kPa
same,vapor or sublimation pressure,"[1]; 480 K, Liquid",3.281 ± 0.0084 kPa
same,molar entropy,"[1]; 480 K, Liquid",476.01 ± 1 J/K/mol
same,vapor or sublimation pressure,"[1]; 485.69 K, Liquid",4.002 ± 0.0086 kPa
same,vapor or sublimation pressure,"[1]; 494.31 K, Liquid",5.336 ± 0.009 kPa
same,mass density,"[1]; 498.11 K, Liquid",945 ± 1 kg/m3
same,molar entropy,"[1]; 500 K, Liquid",493.05 ± 1 J/K/mol
same,vapor or sublimation pressure,"[1]; 507.13 K, Liquid",8.005 ± 0.0097 kPa
same,vapor or sublimation pressure,"[1]; 516.73 K, Liquid",10.67 ± 0.011 kPa
same,molar entropy,"[1]; 520 K, Liquid",509.81 ± 1.1 J/K/mol
same,mass density,"[1]; 523.11 K, Liquid",921.4 ± 0.9 kg/m3
same,vapor or sublimation pressure,"[1]; 524.52 K, Liquid",13.34 ± 0.012 kPa
same,vapor or sublimation pressure,"[1]; 532.53 K, Liquid",16.64 ± 0.013 kPa
same,vapor or sublimation pressure,"[1]; 539.27 K, Liquid",19.93 ± 0.015 kPa
same,molar entropy,"[1]; 540 K, Liquid",526.33 ± 1.1 J/K/mol
same,vapor or sublimation pressure,"[1]; 548.1 K, Liquid",25.01 ± 0.017 kPa
same,vapor or sublimation pressure,"[1]; 548.11 K, Liquid",25.02 ± 0.016 kPa
same,vapor or sublimation pressure,"[1]; 557 K, Liquid",31.18 ± 0.019 kPa
same,molar entropy,"[1]; 560 K, Liquid",542.62 ± 1.1 J/K/mol
same,vapor or sublimation pressure,"[1]; 565.96 K, Liquid",38.57 ± 0.023 kPa
same,vapor or sublimation pressure,"[1]; 574.94 K, Liquid",47.36 ± 0.026 kPa
same,molar entropy,"[1]; 580 K, Liquid",558.7 ± 1.2 J/K/mol
same,vapor or sublimation pressure,"[1]; 584.02 K, Liquid",57.82 ± 0.03 kPa
same,vapor or sublimation pressure,"[1]; 593.13 K, Liquid",70.11 ± 0.035 kPa
same,molar entropy,"[1]; 600 K, Liquid",574.57 ± 1.2 J/K/mol
same,vapor or sublimation pressure,"[1]; 602.33 K, Liquid",84.55 ± 0.041 kPa
same,vapor or sublimation pressure,"[1]; 611.56 K, Liquid",101.34 ± 0.05 kPa
same,molar entropy,"[1]; 620 K, Liquid",590.26 ± 1.2 J/K/mol
same,vapor or sublimation pressure,"[1]; 620.85 K, Liquid",120.8 ± 0.05 kPa
same,vapor or sublimation pressure,"[1]; 630.2 K, Liquid",143.27 ± 0.06 kPa
same,molar entropy,"[1]; 640 K, Liquid",605.78 ± 1.2 J/K/mol
same,molar entropy,"[1]; 650 K, Liquid",613.47 ± 1.3 J/K/mol
same,Triple point temperature,"[1]; Crystal, Adiabatic calorimetry",297.47 ± 0.039 K
same,Glass transition temperature,"[1]; Glass, Adiabatic calorimetry",-53 ± 1 °C
same,molar heat capacity,[2]; 4.666 K,0.4324 ± 0.017 J/K/mol
same,molar heat capacity,[2]; 5 K,0.5238 ± 0.025 J/K/mol
same,molar heat capacity,[2]; 5.509 K,0.6901 ± 0.025 J/K/mol
same,molar heat capacity,[2]; 6.425 K,1.131 ± 0.042 J/K/mol
same,molar heat capacity,[2]; 7.372 K,1.671 ± 0.058 J/K/mol
same,molar heat capacity,[2]; 8.352 K,2.37 ± 0.075 J/K/mol
same,molar heat capacity,[2]; 9.357 K,3.243 ± 0.1 J/K/mol
same,molar heat capacity,[2]; 10 K,3.899 ± 0.042 J/K/mol
same,molar heat capacity,[2]; 10.42 K,4.348 ± 0.042 J/K/mol
same,molar heat capacity,[2]; 11.58 K,5.512 ± 0.05 J/K/mol
same,molar heat capacity,[2]; 12.87 K,7.134 ± 0.058 J/K/mol
same,molar heat capacity,[2]; 14.3 K,8.921 ± 0.075 J/K/mol
same,molar heat capacity,[2]; 15.89 K,11.19 ± 0.083 J/K/mol
same,molar heat capacity,[2]; 17.68 K,13.76 ± 0.1 J/K/mol
same,molar heat capacity,[2]; 19.66 K,16.7 ± 0.12 J/K/mol
same,molar heat capacity,[2]; 20 K,17.2 ± 0.12 J/K/mol
same,molar heat capacity,[2]; 21.86 K,20.01 ± 0.13 J/K/mol
same,molar heat capacity,[2]; 24.3 K,23.71 ± 0.15 J/K/mol
same,molar heat capacity,[2]; 26.97 K,27.69 ± 0.17 J/K/mol
same,molar heat capacity,[2]; 29.93 K,31.88 ± 0.18 J/K/mol
same,molar heat capacity,[2]; 30 K,31.97 ± 0.17 J/K/mol
same,molar heat capacity,[2]; 33.23 K,36.31 ± 0.091 J/K/mol
same,molar heat capacity,[2]; 36.92 K,40.94 ± 0.1 J/K/mol
same,molar heat capacity,[2]; 40 K,44.47 ± 0.11 J/K/mol
same,molar heat capacity,[2]; 41.05 K,45.63 ± 0.11 J/K/mol
same,molar heat capacity,[2]; 45.65 K,50.63 ± 0.12 J/K/mol
same,molar heat capacity,[2]; 50 K,54.82 ± 0.12 J/K/mol
same,molar heat capacity,[2]; 50.77 K,55.5 ± 0.12 J/K/mol
same,molar heat capacity,[2]; 56.48 K,60.59 ± 0.13 J/K/mol
same,molar heat capacity,[2]; 57.01 K,60.79 ± 0.13 J/K/mol
same,molar heat capacity,[2]; 57.98 K,61.8 ± 0.13 J/K/mol
